# Structures can show the parent of a compound that is named as a salt.
# Tests used:
# [1] = test system: tyrosine hydroxylase mRNA; test: Quantitative in situ hybridization histochemistry in locus coeruleus; type: in vivo, rat; conditions: LC
# Experimental: In situ hybridization histochemistry was performed according to the procedures described [Bonaventure, 1998 #353] on adjacent tissue sections of the one used for LCM. The plasmid (pBluescript II SK, Stratagene, San Diego, Calif.) containing the cDNA coding for tyrosine hydroxylase (GB:M10244) was linearized and [^35S]UTP labeled cRNA probe was generated by in vitro transcription with T7 polymerase. Sections were hybridized at 50° C. with 1.106 c.p.m of [^35S]UTP labeled cRNA probe (80 μl per section). After high stringency washes, the sections were exposed to Kodak BiomaxMR film for sixteen hours. [^14C] standard strips (American Radiolabeled chemicals Inc., St Louis, Missouri) were co-exposed to allow densitometry. Autoradiograms were quantified with the aid of an MCID-M4 3.0 Image Analysis system (Imaging Research, St. Catharines, Ontario, Canada). Optical densities in the LC were transformed into levels of bound radioactivity after calibration of the image analyzer with grey-values generated by co-exposed standards. The hybridization signal was expressed as μCi/g. The Student's t-test was used for comparison between the groups.
# male Wistar rats = test: Chronic mild stress (CMS) model, consumption of 1% sucrose solution; type: in vivo, rat; conditions: for sucrose intake as compared to chronic vehicle administration: control animals; for duration of treatment until increase of sucrose intake reached significance / sucrose consumption (CMS-induced deficit) / sucrose intake at end of treatment vs vehicle-treated controls / sucrose intake at end of treatment vs vehicle-treated stressed animals: stressed animals; for sucrose intake at end of treatment vs vehicle-treated controls / sucrose intake at end of treatment vs vehicle-treated stressed animals: Week 5
# Text: Gene expression profiling of antidepressants should be carried in the context of a behavioral model of depression. […] [Willner, 1997 #144] [Yadid, 2000 #422]. The CMS model was developed to mimic anhedonia, a core symptom of depressive disorders. Chronic sequential administration of a variety of mild stressors causes a decrease in responsiveness to rewards in rats, which is reversed by chronic administration of antidepressants drugs [Willner, 1992 #150]. The CMS model of depression also causes a decrease in body weight [Forbes, 1996 #413] but the magnitude of this decrease is minor and the validity, reliability and utility of the CMS is overall well recognized [Yadid, 2000 #422] [Argyropoulos, 1997 #205] #] [Willner, 1996 #226].
# On the basis of sucrose intake scores following two weeks of stress, both stressed and control groups were divided further into matched subgroups (n=8), and for the subsequent five weeks received twice-daily intraperitoneal injections of vehicle (isotonic mannitol solution, pH 4.0, 1 ml/kg) or novelR1 (0.16 mg/kg). […] Sucrose tests were carried out twenty-four hours following the last drug injection (in the case of b.i.d. regime, the second injections on the day preceding the sucrose tests were omitted).
# The behavioral results obtained in this study were analyzed by multiple analysis of variance with three between-subjects factors (stress/control, drug treatments and successive sucrose tests). Fisher's LSD test was used for post-hoc comparisons of means.
up-regulation of tyrosine hydroxylase mRNA level by in situ hybridization ([1]; drug/CMS group),up-regulation of tyrosine hydroxylase mRNA level by in situ hybridization ([1]; unstressed rats),Structure (SMILES),sucrose intake at the end of the behavioral experiment (male Wistar rats; CMS) [grams],sucrose intake at the end of the behavioral experiment (male Wistar rats; control) [grams],sucrose intake as compared to chronic vehicle administration (male Wistar rats),duration of treatment until increase of sucrose intake reached significance (male Wistar rats),sucrose consumption (CMS-induced deficit) (male Wistar rats),sucrose intake at end of treatment vs vehicle-treated controls (male Wistar rats),sucrose intake at end of treatment vs vehicle-treated stressed animals (male Wistar rats)
confirmed,confirmed,"CN(C)CCCN1c2ccccc2CCc2ccccc21 [imipramine, imipramine HCl]",13,13,did not change the sucrose intake,three,gradually increased the sucrose consumption,comparable,significantly higher
confirmed,confirmed,Cc1nc2ccccn2c(=O)c1CCN1CCc2oc3ccccc3c2C1 [novelR1],13,13,no significant effect,two,fully reversed,did not differ,significantly higher
